Positions of bridges follow the written chain, without caps; N, C: chain ends. Residues, ends and D or L forms follow the SMILES beside them.
Tests used:
[1] = biological target: T1, DPP IV (Homo sapiens, UniProt P27487); assay type: binding
T1 construct: purchased R&D Systems

[2] = biological target: T2, human Seprase (Homo sapiens, UniProt Q12884); assay type: binding; design: named pCEP4-IgKappa-huSeprase-coCHO_26-760aa-H6 and used for the generation of recombinant soluble human Seprase (rhuSeprase); mouse Ig kappa-chain V-J2-C secretion signal (N, cleaved yes); made in house; host or cells: FreeStyle CHO-S cells (transient transfection; purified from supernatant by Ni-chelate and SEC)
T2 sequence (Q12884 26-760): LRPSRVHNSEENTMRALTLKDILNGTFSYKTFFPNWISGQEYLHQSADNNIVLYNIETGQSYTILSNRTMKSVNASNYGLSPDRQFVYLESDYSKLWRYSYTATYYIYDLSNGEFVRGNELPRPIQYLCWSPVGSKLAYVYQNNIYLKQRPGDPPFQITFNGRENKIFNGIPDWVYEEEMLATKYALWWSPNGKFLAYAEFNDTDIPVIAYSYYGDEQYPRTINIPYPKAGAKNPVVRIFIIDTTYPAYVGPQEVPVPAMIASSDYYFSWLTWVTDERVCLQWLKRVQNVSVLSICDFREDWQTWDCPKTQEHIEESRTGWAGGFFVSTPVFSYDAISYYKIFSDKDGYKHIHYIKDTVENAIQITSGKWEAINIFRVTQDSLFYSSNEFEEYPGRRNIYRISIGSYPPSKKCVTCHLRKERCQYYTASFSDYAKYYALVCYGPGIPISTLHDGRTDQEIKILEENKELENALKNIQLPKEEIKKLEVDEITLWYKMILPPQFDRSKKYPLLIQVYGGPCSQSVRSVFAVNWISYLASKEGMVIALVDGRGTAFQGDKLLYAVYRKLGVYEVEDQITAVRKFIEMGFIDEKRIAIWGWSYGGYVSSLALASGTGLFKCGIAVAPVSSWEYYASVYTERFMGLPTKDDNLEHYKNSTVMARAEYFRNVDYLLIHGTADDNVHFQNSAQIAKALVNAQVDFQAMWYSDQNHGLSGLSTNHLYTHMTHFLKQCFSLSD

[3] = biological target: T3, murine Seprase expressing tumor cells (CAFs in CT26 tumor sections) (Mus musculus, UniProt P97321); test: Staining of paraffin sections of CT26 tumors
T3 construct: from tissue; host or cells: paraffin sections of subcutaneous CT26 tumors grown in BALB/c mice (stromal CAFs)
T3 sequence (P97321 1-761): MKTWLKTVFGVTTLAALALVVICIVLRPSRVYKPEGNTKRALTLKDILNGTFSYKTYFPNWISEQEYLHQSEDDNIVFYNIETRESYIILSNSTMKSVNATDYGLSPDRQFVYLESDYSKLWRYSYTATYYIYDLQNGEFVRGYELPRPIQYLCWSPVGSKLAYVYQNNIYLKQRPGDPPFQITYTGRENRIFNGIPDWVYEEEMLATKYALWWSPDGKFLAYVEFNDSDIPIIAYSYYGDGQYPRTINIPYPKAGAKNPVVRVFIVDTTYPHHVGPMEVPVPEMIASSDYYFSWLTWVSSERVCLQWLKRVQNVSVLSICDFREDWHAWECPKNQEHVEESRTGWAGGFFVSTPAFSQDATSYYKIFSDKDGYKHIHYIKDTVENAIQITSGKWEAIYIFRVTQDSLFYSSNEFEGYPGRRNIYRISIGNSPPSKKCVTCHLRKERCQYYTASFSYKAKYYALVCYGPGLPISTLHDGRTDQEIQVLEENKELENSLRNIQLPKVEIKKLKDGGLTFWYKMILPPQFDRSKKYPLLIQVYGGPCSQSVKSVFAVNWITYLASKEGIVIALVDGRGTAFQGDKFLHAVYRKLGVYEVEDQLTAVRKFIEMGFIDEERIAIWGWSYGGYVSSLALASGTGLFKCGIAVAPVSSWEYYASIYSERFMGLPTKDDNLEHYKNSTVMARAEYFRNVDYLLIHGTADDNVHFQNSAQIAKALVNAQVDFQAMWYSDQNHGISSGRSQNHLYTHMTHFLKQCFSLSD

[4] = biological target: T4, murine homologue of Seprase (Mus musculus, UniProt P97321); assay type: cell-based
T4 construct: expressed in transfected cells; host or cells: CHO-K1
T4 sequence (P97321 1-761): T3 sequence (P97321 1-761)

[5] = biological target: T5, recombinant human Seprase (rhuSeprase) (Homo sapiens, UniProt Q12884); test: Surface plasmon resonance (Biacore T100) on immobilized rhuSeprase; assay type: binding
T5 construct: named pCEP4-IgKappa-huSeprase-coCHO_26-760aa-H6 and used for the generation of recombinant soluble human Seprase (rhuSeprase); mouse Ig kappa-chain V-J2-C secretion signal (N, cleaved yes); made in house; host or cells: FreeStyle CHO-S cells (transient transfection; purified from supernatant by Ni-chelate and SEC)
T5 sequence (Q12884 26-760): T2 sequence (Q12884 26-760)

[6] = biological target: T2, human Seprase

T1 sequence (P27487 whole entry): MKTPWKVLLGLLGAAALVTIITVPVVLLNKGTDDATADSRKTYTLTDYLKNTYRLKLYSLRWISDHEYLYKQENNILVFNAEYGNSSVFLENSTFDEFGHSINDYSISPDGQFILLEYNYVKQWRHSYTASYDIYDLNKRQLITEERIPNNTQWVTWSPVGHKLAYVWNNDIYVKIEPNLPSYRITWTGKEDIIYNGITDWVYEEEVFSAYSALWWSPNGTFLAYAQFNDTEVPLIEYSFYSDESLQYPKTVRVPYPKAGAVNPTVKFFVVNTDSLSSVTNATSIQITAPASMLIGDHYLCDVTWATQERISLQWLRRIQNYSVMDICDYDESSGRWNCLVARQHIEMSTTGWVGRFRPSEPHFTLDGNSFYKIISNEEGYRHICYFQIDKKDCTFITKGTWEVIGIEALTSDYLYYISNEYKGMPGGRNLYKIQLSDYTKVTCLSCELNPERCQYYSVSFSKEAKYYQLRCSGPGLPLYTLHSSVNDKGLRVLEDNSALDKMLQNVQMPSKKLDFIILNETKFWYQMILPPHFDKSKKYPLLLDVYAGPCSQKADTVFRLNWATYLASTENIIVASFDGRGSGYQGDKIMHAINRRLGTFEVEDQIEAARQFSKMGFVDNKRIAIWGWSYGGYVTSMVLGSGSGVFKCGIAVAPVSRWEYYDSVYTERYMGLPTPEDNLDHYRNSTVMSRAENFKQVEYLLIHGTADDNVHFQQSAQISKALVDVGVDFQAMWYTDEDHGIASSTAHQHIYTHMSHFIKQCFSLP

## CC[C@H](C)[C@@H]1NC(=O)[C@@H]2CSSC[C@H](NC(=O)[C@H](CCCCN)NC(=O)CN)C(=O)N3CCC[C@H]3C(=O)N[C@@H](Cc3ccc(O)cc3)C(=O)N[C@@H](CO)C(=O)N[C@@H](CC(N)=O)C(=O)N[C@@H](Cc3c[nH]c4ccccc34)C(=O)N[C@@H]([C@@H](C)O)C(=O)N3CCC[C@H]3C(=O)NCC(=O)N[C@@H](CCCNC(=N)N)C(=O)NCC(=O)N3CCC[C@H]3C(=O)N[C@@H](CC(=O)O)C(=O)N[C@H]3CSSC[C@H](NC1=O)C(=O)N[C@@H](CCCNC(=N)N)C(=O)NCC(=O)N[C@@H](CC(N)=O)C(=O)NCC(=O)N[C@@H](Cc1ccc(O)cc1)C(=O)N[C@H](C(=O)NCC(=O)O)CSSC[C@H](NC(=O)[C@H](CC(=O)O)NC(=O)[C@H](CO)NC(=O)[C@H](CC(=O)O)NC(=O)[C@H](CCCNC(=N)N)NC(=O)[C@H](CCCNC(=N)N)NC3=O)C(=O)N1CCC[C@H]1C(=O)NCC(=O)N[C@@H](CCCNC(=N)N)C(=O)N2 [MC-FA-010] (H-GKCPYSNWTPGRGPDCRRDSDCPGRCICRGNGYCG-OH; disulfide 3-26, 16-28, 22-34)
[1]
  binding to DPP IV: very weak signal
[2]
  EC50, binding affinity to human Seprase: nanomolar range
  binding to Seprase: binds strongly and selectively
[3]
  binding to CT26 tumor section: binds on CAFs
[4]
  cross-reactivity with the murine homologue: cross-reactive
[5]
  kd: 0.2006 s⁻¹
[5]; read-out: ka (1/Ms)
  kon: 1.53e+06 M⁻¹ s⁻¹
[6]
  IC50, binding affinity to human Seprase: nanomolar range
